The record followed here is patent US12428403B2, “N-(heterocyclyl and heterocyclylalkyl)-3-benzylpyridin-2-amine derivatives as SSTR4 agonists” (Takeda Pharmaceutical Company Limited, priority 2020, dated 2025).

For orientation: EC50 means the midpoint of the concentration-response curve. Higher therefore signals weaker potency.

The target of assay [1] is SSTR1 (Homo sapiens, UniProt P30872). Nature of the assay: biochemical.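 Further: competitive binding to membranes of CHO-K1 cells overexpressing SSTR1, incubated 60 min at room temperature, radioactivity read by scintillation counting after filtration.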
Experimental: SSTR1 I-125 Somatostatin Competition Binding Assay for Selectivity Versus SSTR1
Membranes from CHO-K1 cells overexpressing SSTR1 are purchased from Perkin Elmer (catalog number ES-520-M400UA). Test compounds are suspended in DMSO and then diluted in assay buffer (25 mM HEPES pH 7.4, 10 mM MgCl2, 1 mM CaCl2, 0.5% BSA) plus 0.4 nM I-125 labeled somatostatin (Perkin Elmer catalog number NEX389). […] Then 10 μg of SSTR1 membranes in 50 μL assay buffer are added per well. The plate is incubated for 60 minutes at room temperature. […] The contents of the assay plate are transferred to filters with a TomTech harvester and washed 5 times with 20 mM HEPES, 100 mM NaCl. […] The scintillator sheets are melted to the filters using a heat block. The filters are then read in a MicroBeta scintillation counter. Binding Ki curves are generated using Activity Base for Screening Data Management and the results are reported as pIC50.
In assay [2] the target is T1, SSTR4 (Homo sapiens, UniProt P31391). Nature of the assay: cell-based.
Experimental: This cell-based assay measures the ability of compounds to inhibit forskolin stimulated cAMP in CHO-K1 cells overexpressing SSTR4. CHO-K1 cells overexpressing SSTR4 (CHO-SSTR4) are purchased from DiscoveRx (product code 95-0059C2). The CHO-SSTR4 cells are maintained in F12K media with 10% Fetal Bovine Serum (Hyclone), 1% Pen/Strep (Life Technologies), and 800 μg/mL G418 (Life Technologies). To perform the assay, 3000 cells are plated per well in white 384-well plate (Corning 3570) in 50 complete media and the cells are allowed to attach for 16 hours in a 37° C., 5% CO2 incubator. The next day, the culture media is removed from the cells and the cells are washed (added then removed) with Krebs Ringer Buffer (ZenBio, KRB-1000 mL). Test compounds are suspended in DMSO and diluted in stimulation buffer: Krebs Ringer Buffer plus 0.5% BSA (Roche), 300 μM IBMX (Sigma), and 350 nM forskolin (Sigma). The cells are incubated in 10 μL compound/stimulation buffer for 30 minutes at room temperature. Cellular cAMP levels are detected with a HTRF LANCE Ultra cAMP kit (Perkin Elmer, catalog number TRF0264).
The assay is performed in accordance with the manufacturer's instructions. Five μL of diluted Eu-W8044 labeled streptavidin (dilution: 1:50 in cAMP Detection Buffer) is added to each well. Then 5 μL of diluted biotin cAMP (dilution: 1:150 in cAMP Detection Buffer) is added to each well. The plates are covered and allowed to incubate for 60 minutes at room temperature on a shaker. HTRF (665 nm/615 nm) is read on a Perkin Elmer ENVISION plate reader. The pEC50 values are generated using Activity Base for Screening Data Management.
Assay [3] concerns the target T1, SSTR4. Nature of the assay: SSTR4 I-125 somatostatin competition binding assay (CHO-K1 membranes). The conditions noted are these: competition with I-125 labeled somatostatin, membranes from CHO-K1 overexpressing SSTR4; read-out: SSTR4 Binding pIC50 (converted). Details: host or cells: CHO-K1. From the text: SSTR4I-125 Somatostatin Competition Binding Assay
Membranes from CHO-K1 cells overexpressing SSTR4 are purchased from Perkin Elmer (catalog number ES-524-M400UA). […] The scintillator sheets are melted to filters using a heat block.
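Wherever EC50 is given: CHO-K1 cells overexpressing SSTR4, reduction of forskolin-driven cAMP after 30 min compound exposure at room temperature, cAMP read by HTRF LANCE Ultra kit.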

T1 sequence (P31391 whole entry): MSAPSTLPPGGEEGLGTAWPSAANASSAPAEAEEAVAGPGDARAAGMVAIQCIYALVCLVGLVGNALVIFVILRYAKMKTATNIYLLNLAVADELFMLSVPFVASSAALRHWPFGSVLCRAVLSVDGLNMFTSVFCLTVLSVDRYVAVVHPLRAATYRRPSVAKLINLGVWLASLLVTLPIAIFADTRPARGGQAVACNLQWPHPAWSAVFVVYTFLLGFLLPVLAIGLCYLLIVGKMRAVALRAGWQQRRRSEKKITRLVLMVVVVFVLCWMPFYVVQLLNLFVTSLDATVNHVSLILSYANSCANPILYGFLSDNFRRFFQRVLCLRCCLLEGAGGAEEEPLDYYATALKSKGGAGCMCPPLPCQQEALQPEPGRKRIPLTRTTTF
Sequence of SSTR1 (P30872 whole entry): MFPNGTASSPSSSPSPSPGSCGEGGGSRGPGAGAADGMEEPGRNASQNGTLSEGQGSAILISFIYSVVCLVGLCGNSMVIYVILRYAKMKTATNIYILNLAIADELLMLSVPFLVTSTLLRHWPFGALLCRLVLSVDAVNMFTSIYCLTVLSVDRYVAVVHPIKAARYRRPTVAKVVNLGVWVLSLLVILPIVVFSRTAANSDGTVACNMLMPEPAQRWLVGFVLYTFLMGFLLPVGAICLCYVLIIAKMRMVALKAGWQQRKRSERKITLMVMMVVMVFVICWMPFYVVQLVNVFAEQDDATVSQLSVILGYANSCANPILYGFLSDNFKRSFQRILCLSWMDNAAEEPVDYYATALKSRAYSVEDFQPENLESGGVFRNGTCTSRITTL

For `CNC(=O)c1cnc(NCCN2CCCC2)c([C@@H](C)c2ccc(F)cc2)n1` (single isomer, unassigned) [Example 23], the IC50 is 13200 nM in assay [1] and 63.1 nM in assay [3]. Besides, in assay [2], the EC50 was 25.1 nM.
The corresponding values for `COCCNC(=O)c1nc(C(C)c2ccc(F)cc2)c(NCCN2CCCC2)nc1C` (stereo not drawn) [Example 52, 6-(1-(4-fluorophenyl)ethyl)-N-(2-methoxyethyl)-3-methyl-5-((2-(pyrrolidin-1-yl)ethyl)amino)pyrazine-2-carboxamide] are 1620 nM, 16.2 nM and 1.86 nM.
For `Cc1nnc(C(C)c2ccc(F)cc2)c(NCCN2CCC2)n1` (stereo not drawn) [Example 132, N-(2-(azetidin-1-yl)ethyl)-6-(1-(4-fluorophenyl)ethyl)-3-methyl-1,2,4-triazin-5-amine], in that order: 47900 nM, 28.2 nM and 1.95 nM.
The corresponding values for `CNC(=O)c1nc(Cc2ccc(F)cc2)c(NCCN2CCCC2)nc1C` [Example 44, 6-(4-fluorobenzyl)-N,3-dimethyl-5-((2-(pyrrolidin-1-yl)ethyl)amino)pyrazine-2-carboxamide] are 11700 nM, 67.6 nM and 4.79 nM.
`CC(c1ccc(F)cc1)c1nccnc1NCCN1CCCC1` (stereo not drawn) [Example 119, 3-(1-(4-fluorophenyl)ethyl)-N-(2-(pyrrolidin-1-yl)ethyl)pyrazin-2-amine]: the figures for the IC50 in assay [1] and in assay [3] were 12000 nM and 151 nM, respectively. The concentration for a half-maximal effect (EC50) in assay [2] is 8.71 nM.
In the case of `Cc1nc(NCCN2CCCC2)c(C(C)c2ccc(F)cc2)nc1C(=O)NC1CC1` (stereo not drawn) [Example 62, N-cyclopropyl-6-(1-(4-fluorophenyl)ethyl)-3-methyl-5-((2-(pyrrolidin-1-yl)ethyl)amino)pyrazine-2-carboxamide], the values for the IC50 in assay [1] and in assay [3] were 1410 nM and 14.5 nM, respectively. The concentration giving a half-maximal response (EC50) in assay [2] was 4.27 nM.
The corresponding values for `Cc1cccc(Cc2ncc(C(C)C)nc2NCCN2CCC2)c1` [Example 87, N-(2-(azetidin-1-yl)ethyl)-6-isopropyl-3-(3-methylbenzyl)pyrazin-2-amine] are 3720 nM, 10.5 nM and 5.01 nM.
For `C[C@H](c1ccc(F)cc1)c1nc(C(=O)N[C@H]2CCOC2)cnc1NCCN1CCCC1` [Example 12, 6-((R)-1-(4-fluorophenyl)ethyl)-5-((2-(pyrrolidin-1-yl)ethyl)amino)-N-((S)-tetrahydrofuran-3-yl)pyrazine-2-carboxamide], in that order: 5620 nM, 162 nM and 15.1 nM.
For `CC(c1ccc(F)cc1)c1nc(-c2nccn2C)cnc1NCCN1CCCC1` (stereo not drawn) [Example 124, 3-(1-(4-fluorophenyl)ethyl)-5-(1-methyl-1H-imidazol-2-yl)-N-(2-(pyrrolidin-1-yl)ethyl)pyrazin-2-amine], in that order: 3470 nM, 245 nM and 36.3 nM.
Turning to `CCN(C)C(=O)c1nc(C(C)c2ccc(F)cc2)c(NCCN2CCCC2)nc1C` (stereo not drawn) [Example 63, N-ethyl-6-(1-(4-fluorophenyl)ethyl)-N,3-dimethyl-5-((2-(pyrrolidin-1-yl)ethyl)amino)pyrazine-2-carboxamide], the IC50 was 5370 nM in assay [1] and 18.2 nM in assay [3]. Further, the concentration for a half-maximal effect (EC50) in assay [2] was 1.35 nM.
The corresponding values for `Cc1nc(NCCN2CCCC2)c(C(C)c2ccc(F)cc2)nc1C(=O)N1CC[C@@H](F)C1` (stereo partly drawn) [Example 74, (6-(1-(4-fluorophenyl)ethyl)-3-methyl-5-((2-(pyrrolidin-1-yl)ethyl)amino)pyrazin-2-yl)((R)-3-fluoropyrrolidin-1-yl)methanone] are 4370 nM, 63.1 nM and 3.24 nM.
For `C[C@H](c1ccc(F)cc1)c1nc(C(N)=O)cnc1N[C@@H]1CCN(C)C1` (single isomer, unassigned) [Example 30], in that order: 12300 nM, 912 nM and 49 nM.
The corresponding values for `Cc1nc(NCCN2CCCC2)c(C(C)c2ccc(F)cc2)nc1C(=O)N1CCC(F)(F)C1` (stereo not drawn) [Example 60, (3,3-difluoropyrrolidin-1-yl)(6-(1-(4-fluorophenyl)ethyl)-3-methyl-5-((2-(pyrrolidin-1-yl)ethyl)amino)pyrazin-2-yl)methanone] are 1580 nM, 40.7 nM and 4.9 nM.
In the case of `Cc1cccc(Cc2nnc(C)nc2NCCN2CCC2)c1` [Example 148, N-(2-(azetidin-1-yl)ethyl)-3-methyl-6-(3-methylbenzyl)-1,2,4-triazin-5-amine], the IC50 in assay [1] is 15100 nM; in assay [3], 42.7 nM. The same molecule had a concentration for a half-maximal effect (EC50) in assay [2] of 10 nM.
The corresponding values for `CNC(=O)c1nc(C(C)c2ccc(F)cc2)c(NCCN2CCCC2)nc1C` (stereo not drawn) [Example 49, 6-(1-(4-fluorophenyl)ethyl)-N,3-dimethyl-5-((2-(pyrrolidin-1-yl)ethyl)amino)pyrazine-2-carboxamide] are 2570 nM, 16.6 nM and 0.977 nM.
Turning to `Cc1nc(NCCN2CCCC2)c(C(C)c2ccc(F)cc2)nc1C(=O)NC1CC(F)(F)C1` (stereo not drawn) [Example 73, N-(3,3-difluorocyclobutyl)-6-(1-(4-fluorophenyl)ethyl)-3-methyl-5-((2-(pyrrolidin-1-yl)ethyl)amino)pyrazine-2-carboxamide], the figures for the IC50 in assay [1] and in assay [3] were 1100 nM and 47.9 nM, respectively. Further, the half-maximal effective concentration (EC50) in assay [2] was 9.77 nM.
The corresponding values for `Cc1nnc([C@H](C)c2ccccc2)c(NCCN2CCC2)n1` (single isomer, unassigned) [Example 144] are 18600 nM, 603 nM and 38 nM.
For `CC(c1ccc(F)cc1)c1nc(-c2ncco2)cnc1NCCN1CCCC1` (stereo not drawn) [Example 123, 3-(1-(4-fluorophenyl)ethyl)-5-(oxazol-2-yl)-N-(2-(pyrrolidin-1-yl)ethyl)pyrazin-2-amine], in that order: 3310 nM, 123 nM and 20.9 nM.
For the molecule `Cc1nc(NCCN2CCCC2)c(C(C)c2ccc(F)cc2)nc1C(=O)N(C)C(C)C` (stereo not drawn) [Example 67, 6-(1-(4-fluorophenyl)ethyl)-N-isopropyl-N,3-dimethyl-5-((2-(pyrrolidin-1-yl)ethyl)amino)pyrazine-2-carboxamide], the IC50 was 3630 nM in assay [1] and 10 nM in assay [3]. In assay [2], the concentration for a half-maximal effect (EC50) is 1.7 nM.
The corresponding values for `CC(c1ccc(F)cc1)c1ncc(C(N)=O)nc1NCCN1CCCC1` (stereo not drawn) [Example 37, 5-(1-(4-fluorophenyl)ethyl)-6-((2-(pyrrolidin-1-yl)ethyl)amino)pyrazine-2-carboxamide] are 4570 nM, 490 nM and 61.7 nM.
